Structures can show the parent of a compound that is named as a salt.

The target in one data set is T1, P2X7 receptor (Homo sapiens, UniProt Q99572).
T1 construct: 200 μl of a suspension of THP-1 cells; endogenous in cells; host or cells: THP-1 cells
T1 sequence (Q99572 1-595): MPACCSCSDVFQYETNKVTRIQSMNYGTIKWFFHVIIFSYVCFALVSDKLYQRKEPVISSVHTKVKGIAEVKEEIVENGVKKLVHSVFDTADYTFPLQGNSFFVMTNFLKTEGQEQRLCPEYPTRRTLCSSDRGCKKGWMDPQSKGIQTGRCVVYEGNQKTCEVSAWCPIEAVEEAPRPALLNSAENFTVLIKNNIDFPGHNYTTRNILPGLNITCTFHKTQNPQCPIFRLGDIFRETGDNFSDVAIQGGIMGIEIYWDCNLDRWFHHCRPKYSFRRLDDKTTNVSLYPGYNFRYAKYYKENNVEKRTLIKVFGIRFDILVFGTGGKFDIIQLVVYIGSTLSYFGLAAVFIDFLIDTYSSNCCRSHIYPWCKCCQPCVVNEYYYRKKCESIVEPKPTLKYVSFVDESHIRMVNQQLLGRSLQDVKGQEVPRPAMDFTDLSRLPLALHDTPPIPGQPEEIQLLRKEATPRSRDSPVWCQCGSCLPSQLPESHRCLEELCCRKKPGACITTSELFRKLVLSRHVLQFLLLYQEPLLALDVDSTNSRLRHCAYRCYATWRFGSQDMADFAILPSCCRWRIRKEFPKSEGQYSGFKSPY
Put plainly: P2X7 receptor antagonist test: bbATP-induced ethidium bromide fluorescence in THP-1 cells. Type of data set: cell-based. The note with it: negative logarithm of concentration reducing bbATP agonist activity by 50%, 10^-5M bbATP, 37° C. one hour. The text has this: Certain compounds such as benzoylbenzoyl adenosine triphosphate (bbATP) are known to be agonists of the P2X7 receptor, effecting the formation of pores in the plasma membrane (Drug Development Research (1996), 37(3), p. 126). Consequently, when the receptor is activated using bbATP in the presence of ethidium bromide (a fluorescent DNA probe), an increase in the fluorescence of intracellular DNA-bound ethidium bromide is observed. The increase in fluorescence can be used as a measure of P2X7 receptor activation and therefore to quantify the effect of a compound on the P2X7 receptor.
In this manner, each of the title compounds of the Examples was tested for antagonist activity at the P2X7 receptor. Thus, the test was performed in 96-well flat bottomed microtitre plates, the wells being filled with 250 μl of test solution comprising 200 μl of a suspension of THP-1 cells (2.5×10^6 cells/ml) containing 10^−4M ethidium bromide, 25 μl of a high potassium buffer solution containing 10^−5M bbATP, and 25 μl of the high potassium buffer solution containing concentrations of test compound typically from 30 μM-0.001 μM. The plate was covered with a plastics sheet and incubated at 37° C. for one hour. The plate was then read in a Perkin-Elmer fluorescent plate reader, excitation 520 nm, emission 595 nm, slit widths: Ex 15 nm, Em 20 nm. […]
Broadly, the IC50 is the concentration that inhibits the measured activity by half. `N#Cc1cccc(NCC(=O)Nc2c(Cl)ccc3nc(N4CC[C@@H](O)C4)ccc23)c1` [Example 7, N-[6-Chloro-2-[(3R)-3-hydroxy-1-pyrrolidinyl]-5-quinolinyl]-2-[(3-cyanophenyl)amino]-acetamide] gave a half-maximal inhibitory concentration (IC50) of 79.4 nM. Still for that read-out and setting: next, `O=C(CSc1ccccc1)Nc1c(Cl)ccc2nc(N3CC[C@@H](O)C3)ccc12` [Example 6, N-[6-Chloro-2-[(3R)-3-hydroxy-1-pyrrolidinyl]-5-quinolinyl]-2-(phenylthio)-acetamide]: 398 nM.

System in a further data set: not given
Assay: not given
Settings: not given
By melting point is commonly meant the temperature, or range, at which the solid turns liquid. In turn, `O=C(CNc1ccccc1Cl)Nc1c(Cl)ccc2nc(N3CC[C@@H](O)C3)ccc12` had a melting point of 215 to 219 °C. Still for that read-out and setting: the figure for `O=C(CNc1ccc(F)c(F)c1)Nc1c(Cl)ccc2nc(N3CC[C@@H](O)C3)ccc12` is 238 to 240 °C; for `O=C(COc1ccccc1)Nc1c(Cl)ccc2nc(N3CC[C@@H](O)C3)ccc12` it is 233 to 235 °C. The same measure, in the same setting: next, `O=C(CNc1ccc(F)cc1)Nc1c(Cl)ccc2nc(N3CC[C@@H](O)C3)ccc12`: 242 to 246 °C; `O=C(CSc1ccccc1)Nc1c(Cl)ccc2nc(N3CC[C@@H](O)C3)ccc12` [Example 6, N-[6-Chloro-2-[(3R)-3-hydroxy-1-pyrrolidinyl]-5-quinolinyl]-2-(phenylthio)-acetamide]: 246 to 249 °C. The same measure, in the same setting: the figure for `N#Cc1ccc(NCC(=O)Nc2c(Cl)ccc3nc(N4CC[C@@H](O)C4)ccc23)cc1` is 230 to 233 °C; for `O=C(CNc1cccc(Cl)c1)Nc1c(Cl)ccc2nc(N3CC[C@@H](O)C3)ccc12` (as salt: hydrochloride) it is 180 °C (dec.). In turn, `O=C(CNc1ccccc1)Nc1c(Cl)ccc2nc(N3CC[C@@H](O)C3)ccc12` came in with a melting point of 230 to 232 °C.

`CC(O)C(O)c1ccc2c(NC(=O)CNc3ccc(F)cc3)c(Cl)ccc2n1` (stereo not shown) came in with a melting point of 135 to 138 °C.

Regarding `O=C(CNc1cccc(F)c1)Nc1c(Cl)ccc2nc(N3CC[C@@H](O)C3)ccc12`, the melting point fell in the range of 218 to 220 °C.

On to `O=C(CNc1ccc(Cl)cc1)Nc1c(Cl)ccc2nc(N3CC[C@@H](O)C3)ccc12` (as salt: hydrochloride), for which the melting point was 175 °C (dec.).

Values taken from patent US20080058309A1, “Novel Compounds 171” (ASTRAZENECA AB, priority 2006, published 2008).
